Source: patent publication US20250034620A1 (priority 2022, published 2025)
Several values for one entry are separate records, joined by “and”; a condition that tells them apart may be missing. Identical values can stand only once.

Molecular target: H.c.LSU group II intron
Format: biochemical, Histoplasma capsulatum
Conditions: logistic fit of kobs against 14 inhibitor concentrations, 5 nM to 300 μM; MB18 readout; 37° C.; read-out: KI (inhibition constant) of the self-splicing reaction

Question: How did the Ki turn out when `O=C1c2c(O)ccc(O)c2C(=O)c2c(NCCNCCO)ccc(NCCNCCO)c21` [mitoxantrone] was run?
Answer: 1790 nM and 2240 nM
